# From patent publication US9675697B2 (THE REGENTS OF THE UNIVERSITY OF MICHIGAN, priority 2013, dated 2017)
# Like-named read-outs stand apart in the source and are kept apart here.
# Key:
# BRD2 BD1 [1] = target: T1, BRD2 BD1 (Homo sapiens (Human), UniProt P25440); assay: FP competitive binding assay using Cpd. No. 350 as the probe
# Procedure: (§8) Fluorescence Polarization (FP) competitive binding studies (see above) were carried out using the FAM labeled fluorescent probe Cpd. No. 350 to determine binding affinities of representative compounds to both BD1 and BD2 of BRD2, BRD3, and BRD4 proteins. Equilibrium dissociation constants (Id) values of Cpd. No. 350 to these six proteins were determined from protein saturation experiments by monitoring the total fluorescence polarization of mixtures composed with the fluorescent probe at a fixed concentration and proteins with increasing concentrations up to full saturation. Serial dilutions of testing protein were mixed with Cpd. No. 350 to a final volume of 200 μl in the assay buffer. […] Plates were incubated at room temperature for 30 minutes with gentle shaking to assure equilibrium. […] Kd values of Cpd.
# (§9) The IC50 and Ki values of compounds were determined in a competitive binding experiment as described above. […] FP values were measured as described above. IC50 values were determined by nonlinear regression fitting of the competition curves.
# BRD4 BD2 [2] = target: T2, BRD4 BD2 (Homo sapiens (Human), UniProt O60885); assay: as above
# Procedure: as §8, §9
# BRD2 BD2 [3] = target: T3, BRD2 BD2 (Homo sapiens (Human), UniProt P25440); assay: as above
# T3 sequence (P25440 344-453): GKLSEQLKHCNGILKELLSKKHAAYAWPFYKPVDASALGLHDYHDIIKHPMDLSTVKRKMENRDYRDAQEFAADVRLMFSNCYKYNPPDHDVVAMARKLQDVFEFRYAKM
# [4] = tested on: leukemia MOLM-13 cell line; assay: 4-day cell viability assay, CellTiter-Glo; assay type: cell-based; conditions: 4 days, read-out: Cell Growth Inhibition (IC50 (nM)) MOLM-13 Cell Line (CellTiter-Glo assay)
# Procedure: (§1) The effect of representative BET bromodomain inhibitors on cell viability was determined in a 4-day proliferation assay. Cells were maintained in the appropriate culture medium with 10% FBS at 37° C. and an atmosphere of 5% CO2. All the cell lines were used within three months of thawing fresh vials.
# (§2) Cells were seeded in 96-well flat bottom (Corning COSTAR, Corning, N.Y., cat#3595) or white opaque cell culture plates (BD Falcon, cat#353296) at a density of 3,000-10,000 cells/well in 75 μl of culture medium. Compounds were serially diluted in the appropriate medium, and 75 μl of the diluted compounds were added to the appropriate wells of the cell plate. After the addition of compounds, the cells were incubated at 37° C. in an atmosphere of 5% CO2 for 4 days. Cell viability was determined using the CellTiter-Glo® Luminescent Cell Viability Assay Kit (Promega, Madison, Wis.) for MOLM-13 cells and WST (2-(2-methoxy-4-nitrophenyl)-3-(4-nitrophenyl)-5-(2,4-disulfophenyl)-2H-tetrazolium, monosodium salt) Cell Counting-8 Kit (Dojindo Molecular Technologies, Inc., Rockville, Md.) for MDA-MB-436 cells according to the manufacturers' instructions.
# For the CellTiter-Glo assay, 100 μl of CellTiter-Glo® Reagent was added to each well, and then the plates were incubated at room temperature for 10-20 minutes. The luminescent signal was measured using a Tecan Infinite M1000 multimode microplate reader (Tecan, Morrisville, N.C.). The readings were normalized to the DMSO-treated cells and the IC50 was calculated by nonlinear regression (four parameters sigmoid fitted with variable slope, least squares fit, and no constraint) analysis using the GraphPad Prism 5 software.
# AML-2 = assay: Cell growth inhibition in leukemia cell line; assay type: cell-based
# Procedure: as §1, §2
# MV4;11 = assay: Cell growth inhibition in leukemia cell line; assay type: cell-based
# K562 = assay: Cell growth inhibition in leukemia cell line; assay type: cell-based; conditions: Homo sapiens
# BRD2 BD2 [5] = target: T3, BRD2 BD2; assay: OctetRED biolayer interferometry (BLI) binding assay
# Procedure: (§3) Binding affinities of synthesized compounds to BRD2 BD1 and BD2, BRD3 BD1 and BD2, and BRD4 BD1 and BD2 were also determined by a label free binding assay using the OctetRED label free biolayer interferometry (BLI) binding assay.
# (§4) BLI measures interference pattern changes of light reflected from an optical layer and a biolayer containing protein targets only or complexed with interacting partners. The assay principle is similar to the surface plasmon resonance (SPR) assay in which the target protein is immobilized on an optical surface and then exposed to potential binding partners in solution. The interaction between the binding partner and the immobilized protein changes the optical properties of the biosensors, resulting in the wavelength shift of reflecting light which will change the interference pattern. Association and dissociation rates can be obtained by fitting the real time wavelength shift of the based on a proper binding model, from which KD values can be obtained thereafter.
# (§5) Biotin labeled BRD proteins (10 μg/ml) in kinetic assay buffer (PBS, pH 7.4, 0.1% BSA and 0.01% Tween-20) were immobilized on Super Streptavidin (SSA) sensors for 15 minutes followed by washing in kinetic buffer for 10 minutes to eliminate any loose non-specific immobilization. […] These protein coated sensors were then immersed into the testing compound solutions, starting from the one with the lowest concentration, where compound association occurs and then returned to the fresh buffer for the dissociation. The same operation was repeated for the next solution with higher concentration up to the one with the highest concentration. […] For each kinetic cycle, kinetic curves for association and dissociation were obtained from raw sensorgrams by using the double reference subtraction protocol included in the analysis program (Data Analysis 7.0) provided by the manufacturer, in which nonspecific interaction and buffer drift were both corrected. The association and dissociation rate constants (kon and koff) were determined using the global fitting protocol in the analysis program based on a reversible 1:1 binding model. The equilibrium association constant (KA) was calculated thereafter. All binding data were collected at 30 degree. Assay plates were kept being shaken at 1000 RPM in the whole experiment time period to avoid mass transport effect.
# BRD3 BD2 [6] = target: T4, BRD3 BD2 (Homo sapiens (Human), UniProt Q15059); assay: as above
# T4 sequence (Q15059 306-415): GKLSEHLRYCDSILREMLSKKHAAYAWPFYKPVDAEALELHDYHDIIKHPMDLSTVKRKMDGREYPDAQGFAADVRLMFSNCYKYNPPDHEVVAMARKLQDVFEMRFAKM
# Procedure: as §3, §4, §5
# BRD4 BD1 [7] = target: T5, BRD4 BD1 (Homo sapiens (Human), UniProt O60885); assay: as above
# Procedure: as §3, §4, §5
# BRD4 BD2 [8] = target: T2, BRD4 BD2; assay: as above
# Procedure: as §3, §4, §5
# BRD2 BD1 [9] = target: T1, BRD2 BD1; assay: as above
# Procedure: as §3, §4, §5
# BRD3 BD1 [10] = target: T6, BRD3 BD1 (Homo sapiens (Human), UniProt Q15059); assay: as above
# T6 sequence (Q15059 34-140): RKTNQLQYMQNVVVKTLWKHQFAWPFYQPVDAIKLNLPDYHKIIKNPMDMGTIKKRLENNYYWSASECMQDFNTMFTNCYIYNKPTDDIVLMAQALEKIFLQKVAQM
# Procedure: as §3, §4, §5
# BRD4 BD1 [11] = target: T5, BRD4 BD1; assay: FP competitive binding assay using Cpd. No. 350 as the probe
# prostate VCaP cell line = assay: Cell growth inhibition, Cell TiterGLO, 4 days; assay type: cell-based; conditions: Homo sapiens, VCaP, 96 h, treated 4 days, read-out: VCaP cells (IC50 (nM))
# [12] = tested on: breast cancer MDA-MB-436 cell line; assay: 4-day cell viability assay, WST; assay type: cell-based; conditions: Homo sapiens, MDA-MB-436, 96 h; 4 days; read-out: Cell Growth Inhibition (IC50 (nM)) MDA-436 Cell Line (WST assay)
# Procedure: as §1, §2
# For the WST assay, WST-8 reagent was added to each well at a final concentration of 10% (v/v), and then the plates were incubated at 37° C. for 1-2 hours for color development. The absorbance was measured at 450 nm using a SPECTRAmax PLUS plate reader (Molecular Devices, Sunnyvale, Calif.). The readings were normalized to the DMSO-treated cells and the half maximal inhibitory concentration (IC50) was calculated by nonlinear regression (four parameters sigmoid fitted with variable slope, least squares fit, and no constraint) analysis using the GraphPad Prism 5 software (GraphPad Software, La Jolla, Calif.).
# MOLM-13 = assay: Cell growth inhibition, CellTiter-Glo, acute leukemia cell line; assay type: cell-based; conditions: Homo sapiens, MOLM-13, 96 h, 4 days
# Procedure: (§6) Cell growth inhibitory activity of representative BET bromodomain inhibitors was determined using CellTiter-Glo® Luminescent Cell Viability Assay. For leukemia cell lines MV-4-11 (ATCC, Manassas, Va.) and MOLM-13 (DSMZ, Germany), cells were seeded in 96-well white opaque cell culture plates at a density of 10,000 cells/well with serially diluted compounds and incubated at 37° C. in an atmosphere of 95% air and 5% CO2 for 4 days. Cell viability was determined using the CellTiter-Glo® Luminescent Cell Viability Assay Kit (Promega, Madison, Wis.) according to the manufacture's instruction. Briefly, a volume of CellTiter-Glo® Reagent equal to the volume of cell culture medium was added to each well, and then the plates were incubated at room temperature for 10-20 minutes. The luminescent signal was measured using a Tecan Infinite M1000 multimode microplate reader (Tecan, Morrisville, N.C.). The half maximal inhibitory concentration (IC50) was calculated using the GraphPad Prism 5 software (GraphPad Software, La Jolla, Calif.).
# MV-4-11 = assay: as above; assay type: cell-based; conditions: Homo sapiens, MV4-11, 96 h, 4 days
# Procedure: as §6
# BRD2 BD2 [13] = target: T3, BRD2 BD2; assay: FP protein saturation experiment with probe Cpd. No. 350; assay type: binding; conditions: probe 1.5 nM
# Procedure: (§7) Fluorescence Polarization (FP) competitive binding studies (see above) were carried out using the FAM labeled fluorescent probe Cpd. No. 350 to determine binding affinities of representative compounds to both BD1 and BD2 of BRD2, BRD3, and BRD4 proteins. Equilibrium dissociation constants (Id) values of Cpd. […] Final Cpd. […] Kd values of Cpd.
# BRD3 BD2 [14] = target: T4, BRD3 BD2; assay: as above; assay type: binding; conditions: probe 1.5 nM
# Procedure: as §7
# BRD4 BD1 [15] = target: T5, BRD4 BD1; assay: as above; assay type: binding; conditions: probe 1.5 nM
# Procedure: as §7
# BRD4 BD2 [16] = target: T2, BRD4 BD2; assay: as above; assay type: binding; conditions: probe 1.5 nM
# Procedure: as §7
# BRD2 BD1 [17] = target: T1, BRD2 BD1; assay: as above; assay type: binding; conditions: probe 1.5 nM
# Procedure: as §7
# BRD3 BD1 [18] = target: T6, BRD3 BD1; assay: as above; assay type: binding; conditions: probe 1.5 nM
# Procedure: as §7
# [19] = Homo sapiens, MV4-11, cell growth inhibition
# T1 sequence (P25440 74-180): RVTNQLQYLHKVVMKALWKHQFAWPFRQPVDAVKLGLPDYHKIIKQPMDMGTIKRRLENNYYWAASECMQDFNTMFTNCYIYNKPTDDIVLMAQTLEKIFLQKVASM
Compound,Ki (BRD2 BD1 [1]) [nM],Ki (BRD4 BD2 [2]) [nM],Ki (BRD2 BD2 [3]) [nM],IC50 (AML-2) [nM],IC50 (K562) [nM],Kd (BRD2 BD2 [5]) [nM],Kd (BRD4 BD1 [7]) [nM],Kd (BRD4 BD2 [8]) [nM],Kd (BRD2 BD1 [9]) [nM],Ki (BRD4 BD1 [11]) [nM],"IC50 ([4]; Homo sapiens, MOLM-13, 96 h) [nM]",IC50 (MV4;11; [19]) [nM],further results
"COc1cc2c(cc1-c1c(C)noc1C)[nH]c1ccnc(-c3c(C)n[nH]c3C)c12 [Cpd. No. 22, 4-(1-(3,5-dimethyl-1H-pyrazol-4-yl)-8-methoxy-5H-pyrido[4,3-b]indol-7-yl)-3,5-dimethylisoxazole]",21 ± 3.3,16.1 ± 2.8,15.4 ± 3.2,101 ± 22,> 2000,24.4 ± 6.2,40 ± 6.4,27.9 ± 6.8,34 ± 2.1,44.1 ± 6.4,–,–,IC50 [4]: 183 ± 38 nM; IC50 (MV4;11; cell growth inhibition): 61 ± 28 nM; Kd (BRD3 BD2 [6]): 18.7 ± 4.9 nM; Kd (BRD3 BD1 [10]): 17.9 ± 8.8 nM
"CCc1n[nH]c(CC)c1-c1nccc2[nH]c3cc(-c4c(C)noc4C)c(OC)cc3c12 [Cpd. No. 23, 4-(1-(3,5-diethyl-1H-pyrazol-4-yl)-8-methoxy-5H-pyrido[4,3-b]indol-7-yl)-3,5-dimethylisoxazole]",11.1 ± 1,12.2 ± 1.6,11.7 ± 3,104 ± 5,> 2000,–,29 ± 8.8,12.9 ± 2.1,25.6 ± 3.7,24.7 ± 1,104 ± 16,17 ± 3,IC50 (prostate VCaP cell line): 117 nM
"COc1cc2c(cc1-c1c(C)noc1C)[nH]c1ccnc(-c3c(C)nn(C)c3C)c12 [Cpd. No. 25, 4-(8-methoxy-1-(1,3,5-trimethyl-1H-pyrazol-4-yl)-5H-pyrido[4,3-b]indol-7-yl)-3,5-dimethylisoxazole]",12.2 ± 1.7,–,22.2 ± 2.8,163 ± 2,> 2000,35.9 ± 8.8,–,–,41.2 ± 2.2,–,343 ± 5,65 ± 24,IC50 [12]: 119 nM
COc1cc2c(cc1-c1c(C)noc1C)[nH]c1ncnc(-c3c(C)[nH]c4ccccc34)c12 [Cpd. No. 44],–,–,–,–,–,11 ± 4.7,27 ± 14.5,10.2 ± 4.5,33.8 ± 8.2,–,–,–,"Kd (BRD3 BD2 [6]; BLI, read-out: Kd (nM) BRD3 BD2): 10.6 ± 1.1 nM; Kd (BRD3 BD1 [10]; BLI, read-out: Kd (nM) BRD3 BD1): 17 ± 7 nM; IC50 (MOLM-13): < 100 nM; IC50 (MV-4-11): < 100 nM"
COc1cc2c(cc1-c1c(C)noc1C)[nH]c1nc(C(=O)NC3CCN(CCCNC(=O)c4ccc(-c5c6ccc(=O)cc-6oc6cc(O)ccc56)c(C(=O)O)c4)CC3)nc(-c3ccnc4ccc(F)cc34)c12 [Cpd. No. 350],–,–,–,–,–,–,–,–,–,–,–,–,Kd (BRD2 BD2 [13]): 2.2 nM; Kd (BRD3 BD2 [14]): 0.6 nM; Kd (BRD4 BD1 [15]): 5.5 nM; Kd (BRD4 BD2 [16]): 3 nM; Kd (BRD2 BD1 [17]): 2 nM; Kd (BRD3 BD1 [18]): 6.5 nM
